Experiments:
Assay type in all cases: cell-based
[1] = system: neocortex; assay: action potential measurements in mouse brain slice, neocortex; conditions: for amount of current required to trigger an action potential / threshold to trigger an action potential: neocortex
Source text: (§1) A mouse brain slice was used to study the effects of Menthol, Linalool and Icilin. The amygdaloid complex is located within the medial temporal lobe in neocortex and amygdala. The lateral and basolateral nuclei of the amygdaloid complex receive sensory information from cortical and thalamic structures, process the information, and then transmit the information, either directly or through the basal nucleus, to the central nucleus. For experimental analysis of neural activity, synaptic responses from the basolateral complex can be evoked electrically using electrodes, and the action potentials can be measured.

[2] = system: Lateral Amygdala glutamatergic neuron (in a mouse brain slice); assay: whole cell, current clamp recordings, square pulse of 2.5 s at high depolarization; conditions: square pulse of 2.5 s at high depolarization of membrane potential (approximately -30 mV); relative to control; FIG. 2
Source text: as §1
A square pulse of 2.5 s was applied at high depolarization of membrane potential (approximately −30 mV).

[3] = system: Lateral Amygdala glutamatergic neuron (in a mouse brain slice); assay: whole cell, current clamp recordings of spontaneous bursts with increasing concentration of gabazine
Source text: as §1

Structure (SMILES) | action potentials at higher stimulation levels [1] | amount of current required to trigger an action potential [1] | threshold to trigger an action potential [1] | inactivation of the sodium fast channels / further neural firing [2] | spontaneous action potential bursts ([3]; Menthol 250 μM applied extracellularly 10 minutes previous to and during increasing concentrations of gabazine, FIG. 5 compared to FIG. 3) | spontaneous action potential bursts ([3]; increasing concentrations of gabazine alone, applied extracellularly, recordings of 5 minutes each, 10 minute washout, FIG. 3)
C=CC(C)(O)CCC=C(C)C (centres unmarked) [Linalool] | abort action potentials at higher stimulation levels | increase the amount of current required to trigger an action potential | increase the threshold to trigger an action potential | inactivation of the sodium fast channels happens sooner relative to control |  | 
O=C1NC(c2cccc([N+](=O)[O-])c2)=CCN1c1ccccc1O [Icilin] | abort action potentials at higher stimulation levels | increase the amount of current required to trigger an action potential | increase the threshold to trigger an action potential | inactivation of the sodium fast channels happens sooner relative to control |  | 
CC1CCC(C(C)C)C(O)C1 (centres unmarked) [Menthol] | abort action potentials at higher stimulation levels | increase the amount of current required to trigger an action potential | increase the threshold to trigger an action potential | inactivation of the sodium fast channels happens sooner relative to control | complete absence or a strongly decreased presence of spontaneous bursts | 
COc1ccc(-c2ccc(=N)n(CCCC(=O)O)n2)cc1 [gabazine] |  |  |  |  |  | neurons spontaneously present action potential bursts
